Patent publication US10046001B2, “Compositions and methods for reducing intraocular pressure” (UNIVERSITY OF MIAMI, priority 2013, dated 2018)

Key:
[1] = test system: DBA/2J mice; experiment: IOP lowering after topical application in DBA/2J mice; format: in vivo, mouse; details: DBA/2J mouse at 8 months, IOP ~35 mm of Hg, topical once daily up to 7 days
Method: The right eye was treated with vehicle alone and left eye treated with lipid. Control had both eyes treated with vehicle. A. In DBA/2J mice the indicated lipid in vehicle or control (vehicle only) were administered one daily at around 7.5 months of age in mice which were noted to have a IOP≥18 mm of Hg (20% increase from an average baseline of 15 mm of Hg was employed as treatment point). The average IOP recordings are shown for indicated lipids. B. A 10 picomole each of six PC (13:0/13:0; PE (18:0/18:0), Lyso-PS 18:0, PS 18:1, Sphinganine and C17S1P) were combined and applied as a topical dose once daily for up to 7 days on DBA/2J mouse eyes in 5% DMSO (vehicle). […] Transgenic myocillin mice [Tg-MYOC(Y437H)] subjected to a topical dose of indicated lipids as noted above (FIG. 5C). The IOP lowering compared to control was noted on day 4 and 6 as shown.
Intraocular pressure lowering in mouse models. The endogenous lipids lowered IOP in a DBA/2J mouse model of glaucoma (FIG. 5A). DBA/2J is the only known mouse animal where elevation of IOP occur spontaneously. Although this mouse also suffers from pigmentary dispersion, however, elevation of IOP appears not to correlate with […]. The lipids as indicated were applied as a topical dose (10 pmole in 5% DMSO as vehicle). The 5% DMSO only vehicle served as a control (FIG. 5A). […] A 10 picomole each of six PC (13:0/13:0; PE (18:0/18:0), Lyso-PS 18:0, PS 18:1, Sphinganine, and C17S1P) were combined and applied as a topical dose once daily for up to 7 days on DBA/2J mouse eyes in 5% DMSO (vehicle) (in other words, 10 picomoles of each PC was included). […] In addition to the DBA/2J model described here, these endogenous lipids lowered IOP in cochlin and connective tissue growth factor (CTGF) over-expression models. […] Thus the endogenous lipids assessed here lowered IOP in vastly different DBA/2J and MYOC(Y437H) mouse models as well as in cochlin and CTGF overexpression models covering a broad swath of four rodent glaucoma models that encompass induced as well as spontaneous IOP elevation.
Topical application of lipids and measurement of IOP: The lipids were topically applied as 1 μl drops with 10 pmole lipids. Pressure was measured with a tonolab (Colonial
Medical Supplies, N.H.) or with an assembled cannulation device, used in our laboratory. An initial assessment had utilized 10% DMSO as vehicle. However, all data reported here utilized 5% DMSO.

[2] = test system: normotensive cynomolgus monkeys; experiment: IOP and slit lamp examination in normotensive cynomolgus monkeys after topical lipid; format: in vivo
Method: Lipids were topically administered in 1 μl volume around ˜1 pm in the afternoon. The right eye was treated with vehicle alone, and the left eye was treated with lipid. The cynomolgus monkeys (n=4) were treated with […] lipid (except C17S1P which was 50 nM) for 5 days. Monkeys were subjected to slit lamp examination and IOP measurement prior to and after treatment. The IOP measured 3-6 hours post-treatment on the fifth day of treatment is depicted as solid bars. The hollow bars are control (vehicle only (5% DMSO)).
Experimental design: The IOP-reducing activity of six lipids was tested in the eyes of cynomolgus monkeys (n=4 animals for each lipid). Baseline slit lamp biomicroscopic examination (SLE) and IOP for each group of animals was measured prior to topical application of lipids. The SLE and IOP were then measured at 3-6 hours posttreatment. One eye of each monkey received topical application with the lipid suspended in vehicle (1% dimethylsulfoxide (DMSO)), and the contralateral eye was treated with vehicle only. All topical applications contained 10 picomole of lipid (except C17S1P, which was 50 nM). […] The IOP was measured using a minified Goldmann applanation tonometer.

Compound	lowering of IOP after elevation, short term application (FIG. 5B) [1]	IOP reduction ([2]; topical 10 picomole (C17S1P 50 nM), 5 days, IOP 3-6 hours post-treatment)	adverse side effects or toxicity ([2]; topical, slit lamp examination)
CCN[C@H]1C[C@H](C)S(=O)(=O)c2sc(S(N)(=O)=O)cc21 [Dorzolamide, reference compound]	same level of IOP reduction as Timolol		
CCCCCCCCCCCCCCCCCC(=O)OC[C@@H](O)COP(=O)(O)OC[C@H](N)C(=O)O [PS18:0 Lyso-PS]		reduced IOP significantly	without additional adverse side effects or toxicity
